Data on 21 compounds can be found in US10947222B2, “Indole derivatives useful as inhibitors of diacylglyceride O-acyltransferase 2” (Merck Sharp & Dohme Corp., priority 2016, dated 2021).

As a reminder, the IC50 is the midpoint of a concentration-inhibition curve. Low readings indicate inhibition by little substance, high ones a need for much substance.

Molecules are shown by their SMILES.

human DGAT2 (hDGAT2), sequence (Q96PD7 whole entry): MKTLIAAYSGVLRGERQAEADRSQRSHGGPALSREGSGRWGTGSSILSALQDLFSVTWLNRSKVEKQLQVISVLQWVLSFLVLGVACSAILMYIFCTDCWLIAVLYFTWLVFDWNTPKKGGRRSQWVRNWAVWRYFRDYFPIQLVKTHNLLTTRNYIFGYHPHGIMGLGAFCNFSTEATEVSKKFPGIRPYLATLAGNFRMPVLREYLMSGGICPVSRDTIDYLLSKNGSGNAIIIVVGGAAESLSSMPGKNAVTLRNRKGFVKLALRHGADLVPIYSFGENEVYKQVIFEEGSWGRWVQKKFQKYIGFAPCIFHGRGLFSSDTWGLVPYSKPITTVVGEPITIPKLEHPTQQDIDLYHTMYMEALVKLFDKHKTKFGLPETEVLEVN

This test has as its target human DGAT2 (hDGAT2) (Homo sapiens (Human), UniProt Q96PD7). The test is described as follows: DGAT2 enzymatic activity assay (triolein formation, LC/MS/MS). It is filed as biochemical. The settings on record: Sf-9 membrane prep expressing hDGAT2; 25 μM diolein, 10 μM oleoyl-CoA; triolein by LC/MS/MS. On the procedure:
Sf-9 insect cells were maintained in Grace's insect cell culture medium with 10% heated-inactivated fetal bovine serum, 1% Pluronic F-68 and 0.14 μg/ml Kanamycine sulfate in Erlenmeyer flasks at 28° C. in a shaker incubator. After infection with untagged baculovirus expressing human DGAT2 (hDGAT2) at multiplicity of infection (MOI) 0.1 for 48 hours, cells were harvested. Cell pellets were suspended in buffer containing 10 mM Tris-HCl (pH 7.5), 1 mM EDTA (pH 8.0), 250 mM sucrose and Complete Protease Inhibitor Cocktail (Roche Diagnostics Corp., Indianapolis, Ill.), and sonicated on ice. Membrane fractions were isolated by ultracentrifugation (100,000×g pellet), resuspended in the same buffer, and frozen (−80° C.) for later use. The protein concentration was determined with the BCA Protein Assay kit (Pierce Biotechnology Inc., Rockford, Ill.). Expression of protein levels was analyzed by immunoblotting with goat polyclonal DGAT2 antibody C-15 and donkey anti-goat IgG HRP (Santa Cruz Biotechnology, Inc., Santa Cruz, Calif.) followed by detection with ECL reagent (GE Healthcare, Piscataway, N.J.).
LC/MS/MS analyses were performed using Thermal Fisher's LX4-TSQ Vantage system. This system consists of an Agilent binary high-performance liquid chromatography (HPLC) pumps and a TSQ Vantage triple quadrupole MS/MS instrument. For each sample, 2 μL samples from the top organic layer of in-plate liquid-liquid extraction were injected onto a Thermo Betabasic C4 column (2.1 mm×20 mm, 5 μm particle size). The samples were then eluted using the following conditions; mobile phase: methanol/water with 0.1% ammonium format=92/8 (v/v), flow rate: 1 mL/min, temperature: 25 C. Data was acquired in positive mode using a heated electrospray ionization (HESI) interface. The operational parameters for the TSQ Vantage MS/MS instrument were a spray voltage of 3000 V, capillary temperature of 280° C., vaporizer temperature 400° C., shealth gas 60 arbitrary unit, Aux gas 40 arbitrary units, S-lens 113 and collision gas 0.16 Pascals. […] (SRM) chromatograms of triolein (Q1:902.9>Q3:602.3) and internal standard (Q1:902.9>Q3:602.3) were collected for 40 sec. The peak area was integrated by Xcalibur Quan software. The ratio between the triolein generated in the reaction and spiked in internal standard was used to generate percentage inhibition and IC50 values. Compound percentage inhibition was calculated by the following formula: Inhibition %/=1−[(compound response−low control)/(high control−low control)]×100%. Potent compounds were titrated and IC50 were calculated by 4 parameter sigmoidal curve fitting formula.
DGAT2 activity was determined by measuring the amount of enzymatic product triolein (1,2,3-Tri(cis-9-octadecenoyl)glycerol) using the membrane prep mentioned above. The assay was carried out in deep well 384 plates in a final volume of 40 μL at rt. The assay mixture contained the following: assay buffer (100 mM Tris.Cl, pH 7.0, 20 mM MgCl2, 5% ethanol), 25 μM of diolein, 10 μM of oleoyl-CoA and 10 ng/μL of DGAT2 membrane.
Turning to `CC1(NC(=O)c2ccc3c(-c4cccc(C5CC5)c4)cn(-c4ncc(F)cn4)c3c2)CCS(=O)(=O)C1` (single isomer, unassigned; enantiomer a) [Example 16-A, 3-(3-cyclopropylphenyl)-1-(5-fluoropyrimidin-2-yl)-N-(3-methyl-1,1-dioxidotetrahydrothiophen-3-yl)-1H-indole-6-carboxamide (enantiomer A)], 2.7 nM corresponded to half-maximal inhibition (IC50).

`Cc1cc(C)nc(-c2cn(-c3ccc(F)cc3)c3cc(C(=O)NC4CCS(=O)(=O)C4)ccc23)c1` (racemic) [Example 20, 3-(4,6-dimethylpyridin-2-yl)-N-(1,1-dioxidotetrahydrothiophen-3-yl)-1-(4-fluorophenyl)-1H-indole-6-carboxamide (racemic)]: half-maximal inhibition (IC50) required 802 nM.

With `O=C(NC1CCS(=O)(=O)C1)c1ccc2c(-c3ccccn3)cn(-c3ccc(F)cc3)c2c1` (racemic) [Example 22, N-(1,1-dioxidotetrahydrothiophen-3-yl)-1-(4-fluorophenyl)-3-(pyridin-2-yl)-1H-indole-6-carboxamide (racemic)], the IC50 was 664 nM.

`Cc1ccnc(-c2cn(-c3ccc(F)cc3)c3cc(C(=O)NC4CCS(=O)(=O)C4)ccc23)c1` (racemic) [Example 23, N-(1,1-dioxidotetrahydrothiophen-3-yl)-1-(4-fluorophenyl)-3-(4-methylpyridin-2-yl)-1H-indole-6-carboxamide (racemic)] came in with a concentration for half-maximal inhibition (IC50) of 117 nM.

In the case of `CC1(NC(=O)c2ccc3c(-c4cccc(OC(F)F)c4)cn(-c4ncc(F)cn4)c3c2)CCS(=O)(=O)C1` (single isomer, unassigned; enantiomer a) [Example 18-A, 3-(3-(difluoromethoxy)phenyl)-1-(5-fluoropyrimidin-2-yl)-N-(3-methyl-1,1-dioxidotetrahydrothiophen-3-yl)-1H-indole-6-carboxamide (enantiomer A)], the IC50 is 1.7 nM.

With `O=C(N[C@H](CO)c1ccc(C(F)(F)F)nc1)c1ccc2c(-c3ccccc3Cl)cn(-c3ccc(F)cc3)c2c1` [Example 5, (S)-3-(2-chlorophenyl)-1-(4-fluorophenyl)-N-(2-hydroxy-1-(6-(trifluoromethyl)pyridin-3-yl)ethyl)-1H-indole-6-carboxamide], the IC50 came out at 190 nM.

Consider `O=C(NC1CCS(=O)(=O)C1)c1ccc2c(-c3cccc(C(F)(F)F)c3)cn(-c3ccc(F)cc3)c2c1` (racemic) [Example 30, N-(1,1-dioxidotetrahydrothiophen-3-yl)-1-(4-fluorophenyl)-3-[3-(trifluoromethyl)phenyl]-1H-indole-6-carboxamide (racemic)], for which half-maximal inhibition (IC50) required 18 nM.

With `Cc1cc(C)n(-c2cccc(-c3cn(-c4ccc(F)cc4)c4cc(C(=O)NC5CCS(=O)(=O)C5)ccc34)c2)n1` (racemic) [Example 61, 3-[3-(3,5-dimethyl-1H-pyrazol-1-yl)phenyl]-N-(1,1-dioxidotetrahydrothiophen-3-yl)-1-(4-fluorophenyl)-1H-indole-6-carboxamide (racemic)], the IC50 came out at 929 nM.

In the case of `Cc1c(-c2ccccc2Cl)c2ccc(C(=O)NC3(C)CCS(=O)(=O)C3)cc2n1-c1ccc(F)cc1` (single isomer, unassigned; enantiomer a) [Example 8-A, 3-(2-chlorophenyl)-1-(4-fluorophenyl)-2-methyl-N-(3-methyl-1,1-dioxidotetrahydrothiophen-3-yl)-1H-indole-6-carboxamide (Enantiomer A)], 934 nM corresponded to half-maximal inhibition (IC50).

In turn, `CC1(NC(=O)c2ccc3c(-c4cccc(OC(F)F)c4)cn(-c4ncc(F)cn4)c3c2)CCS(=O)(=O)C1` (single isomer, unassigned; enantiomer b) [Example 18-B, 3-(3-(difluoromethoxy)phenyl)-1-(5-fluoropyrimidin-2-yl)-N-(3-methyl-1,1-dioxidotetrahydrothiophen-3-yl)-1H-indole-6-carboxamide (enantiomer B)] gave an IC50 of 0.91 nM.

In turn, `C[C@H](NC(=O)c1ccc2c(-c3ccccc3Cl)cn(-c3ccc(F)cc3)c2c1)c1ccc(C(F)(F)F)nc1` [Example 6, (S)-3-(2-chlorophenyl)-1-(4-fluorophenyl)-N-(1-(6-(trifluoromethyl)pyridin-3-yl)ethyl)-1H-indole-6-carboxamide] returned an IC50 of 476 nM.

As to `O=C(NC1CCS(=O)(=O)C1)c1ccc2c(-c3cccc(OC(F)F)c3)cn(-c3ccc(F)cc3)c2c1` (single isomer, unassigned; enantiomer a) [Example 27-A, 3-(3-(difluoromethoxy)phenyl)-N-(1,1-dioxidotetrahydrothiophen-3-yl)-1-(4-fluorophenyl)-1H-indole-6-carboxamide (enantiomer A)], the IC50 was 0.52 nM.

`O=C(NC1CCS(=O)(=O)C1)c1ccc2c(-c3cccnc3)cn(-c3ccc(F)cc3)c2c1` (racemic) [Example 52, N-(1,1-dioxidotetrahydrothiophen-3-yl)-1-(4-fluorophenyl)-3-pyridin-3-yl-1H-indole-6-carboxamide (racemic)] registered an IC50 of 129 nM.

Regarding `N#Cc1cccc(-c2cn(-c3ccc(F)cc3)c3cc(C(=O)NC4CCS(=O)(=O)C4)ccc23)c1` (racemic) [Example 45, 3-(3-cyanophenyl)-N-(1,1-dioxidotetrahydrothiophen-3-yl)-1-(4-fluorophenyl)-1H-indole-6-carboxamide (racemic)], the IC50 is 13 nM.

`O=C(NC1CCS(=O)(=O)C1)c1ccc2c(-c3c(F)cccc3Cl)cn(-c3ccc(F)cc3)c2c1` (racemic) [Example 49, 3-(2-chloro-6-fluorophenyl)-N-(1,1-dioxidotetrahydrothiophen-3-yl)-1-(4-fluorophenyl)-1H-indole-6-carboxamide (racemic)] gave an IC50 of 155 nM.

`Cn1ccc2cc(-c3cn(-c4ccc(F)cc4)c4cc(C(=O)NC5CCS(=O)(=O)C5)ccc34)ccc21` (racemic) [Example 51, N-(1,1-dioxidotetrahydrothiophen-3-yl)-1-(4-fluorophenyl)-1′-methyl-1H,1′H-3,5′-biindole-6-carboxamide (racemic)] had an IC50 of 102 nM. This IC50 lies about 1.5-fold lower than the previous one.

The compound `O=C(NC1CCS(=O)(=O)C1)c1ccc2c(-c3cccc(C4CC4)c3)cn(-c3ccc(F)cn3)c2c1` (single isomer, unassigned; enantiomer a) [Example 11-A, 3-(3-cyclopropylphenyl)-N-(1,1-dioxidotetrahydrothiophen-3-yl)-1-(5-fluoropyridin-2-yl)-1H-indole-6-carboxamide (enantiomer A)] gave an IC50 of 2.1 nM.

For the compound `O=C(NC1CCS(=O)(=O)C1)c1ccc2c(-c3cc(Cl)cc(Cl)c3)cn(-c3ccc(F)cc3)c2c1` (racemic) [Example 41, 3-(3,5-dichlorophenyl)-N-(1,1-dioxidotetrahydrothiophen-3-yl)-1-(4-fluorophenyl)-1H-indole-6-carboxamide (racemic)], the IC50 was found to be 88 nM. This IC50 is about 42-fold higher than that of the compound before.

As to `CC1(NC(=O)c2ccc3c(-c4ccccc4Cl)c(C#N)n(-c4ccc(F)cc4)c3c2)CCS(=O)(=O)C1` (single isomer, unassigned; enantiomer a) [Example 9-A, 3-(2-chlorophenyl)-2-cyano-1-(4-fluorophenyl)-N-(3-methyl-1,1-dioxidotetrahydrothiophen-3-yl)-1H-indole-6-carboxamide (Enantiomer A)], the IC50 is 448 nM.

`O=C(NC1CCS(=O)(=O)C1)c1ccc2c(-c3c(F)cccc3F)cn(-c3ccc(F)cc3)c2c1` (racemic) [Example 48, 3-(2,6-difluorophenyl)-N-(1,1-dioxidotetrahydrothiophen-3-yl)-1-(4-fluorophenyl)-1H-indole-6-carboxamide (racemic)]: the midpoint of inhibition, the IC50, lay at 53 nM.

`CC1(NC(=O)c2ccc3c(-c4ccccc4Cl)cn(-c4ccc(F)cc4)c3c2)CCS(=O)(=O)C1` (single isomer, unassigned; enantiomer a) [Example 1-A, 3-(2-chlorophenyl)-1-(4-fluorophenyl)-N-(3-methyl-1,1-dioxidotetrahydrothiophen-3-yl)-1H-indole-6-carboxamide (Enantiomer A, fast)]: half-maximal inhibition (IC50) was put at 5.6 nM.
